Like-named read-outs stand apart in the source and are kept apart here.
Legend:
BACE1 enzyme = BACE1 enzyme (Homo sapiens (Human), UniProt P56817); assay: BACE1 efficacy assay (FRET-based, commercial BACE1 kit); format: biochemical; details: test compound 10 μM, 3 nM enzyme, 250 nM substrate
Description: The efficacy assay was performed as a FRET-based assay using a commercially available BACE1 kit (Life Technologies, P2985). 2 μl test compound at 10 μM (final concentration) and 15 μl BACE1 enzyme from the kit (final concentration 3 nM) were preincubated for 15 minutes at room temperature before addition of 15 μl of substrate from the kit (250 nM final concentration) and incubated for additional 90 minutes at room temperature. The assay plate was subsequently read in a Pherastar (Ex540/Em590). […] The efficacy of the test compounds was evaluated at 10 μM (final concentration) and defined as the percent inhibition of the enzyme activity using the equation % inhibition=100%−normalized enzyme activity in percent.

[1] = Brain and plasma exposure in rats after oral dosing (DMPK analysis); format: in vivo; details: male, Sprague Dawley, rat, 3 hours post dose
Description: Young adult Male Sprague Dawley rats of approximately 250 g weight were purchased from Charles River and received 0-30 mg/kg of vehicle (10% HP betaCD+1M MeSO4, pH 2.5) or test compounds (dissolved in vehicle) only by oral gavage (p.o). The compounds are dosed at a volume of 5 ml/kg. Cohorts of 5-10 animals were established for each treatment condition.
At T=180 minutes after initial dosing the animals were stunned and decapitated with a guillotine. Trunk-blood was sampled in EDTA coated tubes after decapitation of the animal. The blood was centrifuged at 2200G at 4° C. for 15 minutes and the plasma was collected and frozen at −80° C. The blood was aliquoted for Aβ ELISA and DMPK analysis. Immediately following sacrifice, the brain was extracted and split into 2 halves. The right hemibrains were snap frozen on dry ice and stored at −80° C. The left half was dissected; with the front forebrain taken for Aβ ELISA and the remainder used for DMPK analysis. These samples were also snap frozen on dry ice and stored at −80° C. until use for analysis.
Compounds 1, 5, 17, 18, and 24 were administered at doses of 10 or 30 mg/kg p.o. and brain and plasma samples were collected at 3 hours post dose and the following exposures and reductions in Aβ40 levels were measured as described above.

Chain of BACE1 enzyme (P56817 46-501): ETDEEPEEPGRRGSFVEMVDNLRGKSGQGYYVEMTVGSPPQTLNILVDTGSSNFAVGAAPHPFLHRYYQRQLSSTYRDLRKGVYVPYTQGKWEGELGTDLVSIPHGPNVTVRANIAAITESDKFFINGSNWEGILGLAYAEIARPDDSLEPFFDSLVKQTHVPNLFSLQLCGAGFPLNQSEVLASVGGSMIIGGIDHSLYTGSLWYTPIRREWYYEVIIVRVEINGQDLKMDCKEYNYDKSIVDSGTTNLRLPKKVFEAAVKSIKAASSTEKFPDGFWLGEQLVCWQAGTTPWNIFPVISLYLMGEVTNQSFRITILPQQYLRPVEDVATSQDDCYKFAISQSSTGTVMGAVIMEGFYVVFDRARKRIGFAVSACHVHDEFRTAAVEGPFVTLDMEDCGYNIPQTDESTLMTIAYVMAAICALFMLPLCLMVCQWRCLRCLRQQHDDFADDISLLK

Row | SMILES | inhibition at 10 µM (BACE1 enzyme) [%] | further results
1 | Cc1cc(C#N)cnc1C(=O)Nc1ccc(F)c([C@@]2(C)N=C(N)[C@@](C)(F)CC2(F)F)c1 [Compound 18, N-(3-((2R,5S)-6-amino-3,3,5-trifluoro-2,5-dimethyl-2,3,4,5-tetrahydropyridin-2-yl)-4-fluorophenyl)-5-cyano-3-methylpicolinamide] | 102 | concentration at 3 h ([1]; 10 mg/kg p.o., brain, read-out: Exp, brain): 412 ng/g; concentration at 3 h ([1]; 10 mg/kg p.o., plasma, read-out: Exp, plasma): 778 ng/g; concentration at 3 h ([1]; 30 mg/kg p.o., brain, read-out: Exp, brain): 1610 ng/g; concentration at 3 h ([1]; 30 mg/kg p.o., plasma, read-out: Exp, plasma): 3000 ng/g
2 | C[C@@]1(F)CC(F)(F)[C@@](C)(c2cc(NC(=O)c3ccc(C(F)(F)F)cn3)ccc2F)N=C1N [Compound 28, N-(3-((2R,5R)-6-amino-3,3,5-trifluoro-2,5-dimethyl-2,3,4,5-tetrahydropyridin-2-yl)-4-fluorophenyl)-5-(trifluoromethyl)picolinamide] | 102 | –
3 | C[C@@]1(F)CC(F)(F)[C@@](C)(c2cc(NC(=O)c3ccc(C#N)cn3)ccc2F)N=C1N [Compound 32, N-(3-((2R,5R)-6-amino-3,3,5-trifluoro-2,5-dimethyl-2,3,4,5-tetrahydropyridin-2-yl)-4-fluorophenyl)-5-cyanopicolinamide] | 101 | –
4 | C[C@]1(F)CC(F)(F)[C@@](C)(c2cc(NC(=O)c3ccn(C(F)F)n3)ccc2F)N=C1N [Compound 6, N-(3-((2R,5S)-6-amino-3,3,5-trifluoro-2,5-dimethyl-2,3,4,5-tetrahydropyridin-2-yl)-4-fluorophenyl)-1-(difluoromethyl)-1H-pyrazole-3-carboxamide] | 100 | –
5 | COc1cnc(C(=O)Nc2ccc(F)c([C@@]3(C)N=C(N)[C@@](C)(F)CC3(F)F)c2)c(C)n1 [Compound 19, N-(3-((2R,5S)-6-amino-3,3,5-trifluoro-2,5-dimethyl-2,3,4,5-tetrahydropyridin-2-yl)-4-fluorophenyl)-5-methoxy-3-methylpyrazine-2-carboxamide] | 98 | –
6 | Cn1cc(Br)nc1C(=O)Nc1ccc(F)c([C@@]2(C)N=C(N)[C@@](C)(F)CC2(F)F)c1 [Compound 9, N-(3-((2R,5S)-6-amino-3,3,5-trifluoro-2,5-dimethyl-2,3,4,5-tetrahydropyridin-2-yl)-4-fluorophenyl)-4-bromo-1-methyl-1H-imidazole-2-carboxamide] | 103 | –
7 | Cc1nc(C(=O)Nc2ccc(F)c([C@@]3(C)N=C(N)[C@](C)(F)CC3(F)F)c2)co1 [Compound 34, N-(3-((2R,5R)-6-amino-3,3,5-trifluoro-2,5-dimethyl-2,3,4,5-tetrahydropyridin-2-yl)-4-fluorophenyl)-2-methyloxazole-4-carboxamide] | 102 | –
8 | C[C@@]1(F)CC(F)(F)[C@@](C)(c2cc(NC(=O)c3nccs3)ccc2F)N=C1N [Compound 36, N-(3-((2R,5R)-6-amino-3,3,5-trifluoro-2,5-dimethyl-2,3,4,5-tetrahydropyridin-2-yl)-4-fluorophenyl)thiazole-2-carboxamide] | 100 | –
9 | COc1cnc(C(=O)Nc2ccc(F)c([C@@]3(C)N=C(N)[C@](C)(F)CC3(F)F)c2)cn1 [Compound 25, N-(3-((2R,5R)-6-amino-3,3,5-trifluoro-2,5-dimethyl-2,3,4,5-tetrahydropyridin-2-yl)-4-fluorophenyl)-5-methoxypyrazine-2-carboxamide] | 102 | –
10 | Cc1csc(C(=O)Nc2ccc(F)c([C@@]3(C)N=C(N)[C@@](C)(F)CC3(F)F)c2)n1 [Compound 10, N-(3-((2R,5S)-6-amino-3,3,5-trifluoro-2,5-dimethyl-2,3,4,5-tetrahydropyridin-2-yl)-4-fluorophenyl)-4-methylthiazole-2-carboxamide] | 102 | –
11 | Cc1noc(C(=O)Nc2ccc(F)c([C@@]3(C)N=C(N)[C@@](C)(F)CC3(F)F)c2)n1 [Compound 21, N-(3-((2R,5S)-6-amino-3,3,5-trifluoro-2,5-dimethyl-2,3,4,5-tetrahydropyridin-2-yl)-4-fluorophenyl)-3-methyl-1,2,4-oxadiazole-5-carboxamide] | 102 | –
12 | Cc1nc(C(=O)Nc2ccc(F)c([C@@]3(C)N=C(N)[C@](C)(F)CC3(F)F)c2)no1 [Compound 35, N-(3-((2R,5R)-6-amino-3,3,5-trifluoro-2,5-dimethyl-2,3,4,5-tetrahydropyridin-2-yl)-4-fluorophenyl)-5-methyl-1,2,4-oxadiazole-3-carboxamide] | 100 | –
13 | C[C@@]1(F)CC(F)(F)[C@@](C)(c2cc(NC(=O)c3ccn(C(F)F)n3)ccc2F)N=C1N [Compound 23, N-(3-((2R,5R)-6-amino-3,3,5-trifluoro-2,5-dimethyl-2,3,4,5-tetrahydropyridin-2-yl)-4-fluorophenyl)-1-(difluoromethyl)-1H-pyrazole-3-carboxamide] | 102 | –
14 | C[C@]1(F)CC(F)(F)[C@@](C)(c2cc(NC(=O)c3ccc(OC(F)F)cn3)ccc2F)N=C1N [Compound 45, N-(3-((2R,5S)-6-amino-3,3,5-trifluoro-2,5-dimethyl-2,3,4,5-tetrahydropyridin-2-yl)-4-fluorophenyl)-5-(difluoromethoxy)picolinamide] | 103 | –
15 | COc1cnc(C(=O)Nc2ccc(F)c([C@@]3(C)N=C(N)[C@@](C)(F)CC3(F)F)c2)c(F)c1 [Compound 46, N-(3-((2R,5S)-6-amino-3,3,5-trifluoro-2,5-dimethyl-2,3,4,5-tetrahydropyridin-2-yl)-4-fluorophenyl)-3-fluoro-5-methoxypicolinamide] | 101 | –
16 | [2H]C([2H])([2H])Oc1ccc(C(=O)Nc2ccc(F)c([C@@]3(C)N=C(N)[C@@](C)(F)CC3(F)F)c2)nc1 [Compound 48] | 99 | –
17 | [2H]C([2H])([2H])Oc1ccc(C(=O)Nc2ccc(F)c([C@@]3(C)N=C(N)[C@](C)(F)CC3(F)F)c2)nc1 [Compound 43, N-(3-((2R,5R)-6-amino-3,3,5-trifluoro-2,5-dimethyl-2,3,4,5-tetrahydropyridin-2-yl)-4-fluorophenyl)-5-(methoxy-d3)picolinamide] | 94 | –
18 | Cc1nc(C(=O)Nc2ccc(F)c([C@@]3(C)N=C(N)[C@@](C)(F)CC3(F)F)c2)co1 [Compound 7, N-(3-((2R,5S)-6-amino-3,3,5-trifluoro-2,5-dimethyl-2,3,4,5-tetrahydropyridin-2-yl)-4-fluorophenyl)-2-methyloxazole-4-carboxamide] | 100 | –
19 | Cn1cnc(C(=O)Nc2ccc(F)c([C@@]3(C)N=C(N)[C@@](C)(F)CC3(F)F)c2)n1 [Compound 22, N-(3-((2R,5S)-6-amino-3,3,5-trifluoro-2,5-dimethyl-2,3,4,5-tetrahydropyridin-2-yl)-4-fluorophenyl)-1-methyl-1H-1,2,4-triazole-3-carboxamide] | 92 | –
20 | C[C@]1(F)CC(F)(F)[C@@](C)(c2cc(NC(=O)c3nccs3)ccc2F)N=C1N [Compound 8, N-(3-((2R,5S)-6-amino-3,3,5-trifluoro-2,5-dimethyl-2,3,4,5-tetrahydropyridin-2-yl)-4-fluorophenyl)thiazole-2-carboxamide] | 104 | –
21 | COc1cnc(C(=O)Nc2ccc(F)c([C@@]3(C)N=C(N)[C@@](C)(F)CC3(F)F)c2)nc1 [Compound 12, N-(3-((2R,5S)-6-amino-3,3,5-trifluoro-2,5-dimethyl-2,3,4,5-tetrahydropyridin-2-yl)-4-fluorophenyl)-5-methoxpyrimidine-2-carboxamide] | 104 | –
22 | C[C@@]1(F)CC(F)(F)[C@@](C)(c2cc(NC(=O)c3ccc(Cl)cc3)ccc2F)N=C1N [Compound 44, N-(3-((2R,5R)-6-amino-3,3,5-trifluoro-2,5-dimethyl-2,3,4,5-tetrahydropyridin-2-yl)-4-fluorophenyl)-4-chlorobenzamide] | 92 | –
23 | Cc1nnc(C(=O)Nc2ccc(F)c([C@@]3(C)N=C(N)[C@@](C)(F)CC3(F)F)c2)o1 [Compound 20, N-(3-((2R,5S)-6-amino-3,3,5-trifluoro-2,5-dimethyl-2,3,4,5-tetrahydropyridin-2-yl)-4-fluorophenyl)-5-methyl-1,3,4-oxadiazole-2-carboxamide] | 88 | –
24 | Cc1cc(F)cnc1C(=O)Nc1ccc(F)c([C@@]2(C)N=C(N)[C@@](C)(F)CC2(F)F)c1 [Compound 49, N-(3-((2R,5S)-6-amino-3,3,5-trifluoro-2,5-dimethyl-2,3,4,5-tetrahydropyridin-2-yl)-4-fluorophenyl)-5-fluoro-3-methylpicolinamide] | 98 | –

From US10004738B2, “Combination treatment comprising administration of 2-amino-3,5,5-trifluoro-3,4,5,6-tetrahydropyridines” (H. Lundbeck A/S, priority 2015, dated 2018)
